Laboratory results taken from US20200222462A1, “METHODS OF TREATMENT USING DECITABINE AND A CD123-TARGETED THERAPY” (priority 2018, published 2020).

Assays:
[1] = test system: Hematopoietic stem cells (HSCs); assay: CD123 expression by flow cytometry, primary hematopoietic stem cells; assay type: cell-based; conditions: for CD123 expression at clinically relevant dose (FIG. 2c): HSC; for increase in CD123 expression vs DMSO: HSCs
From the text: (§1) […] Cells are gated on live cells. Blast cells in AML cell lines were defined as CD33 or CD34 positive. Primary HSCs were defined as CD45^dimSSC^lowCD34^highCD38− and multipotent progenitors were defined as CD34^highCD38+, data represents mean of four normal donors and the error bars represent Standard deviation. Fold change in CD123 Mean Fluorescence Intensity (MFI) with respect to DMSO treated cells is presented.
(§2) CD34 enriched bone marrow was purchase from AllCells.

[2] = test system: AML cell lines Kasumi-1, SKM-1 and MOLM-13; assay: Live cell counts by flow cytometry (DAPI exclusion), AML cell lines; assay type: cell-based; conditions: for cell numbers (dose dependent decline): day 3, 0.46-3000 nM dosed at 0, 24 and 48 hours
Description: (§3) Number of live cells was determined by excluding DAPI+ dead cells in each well. Average of triplicates is presented on the graph.
(§4) SKM1, Kasumi-1 and MOLM-13 cell lines were maintained in 80% RPMI 1640+20% FBS according to manufacturer's instructions. Logarithmically growing SKM1, Kasumi-1 and MOLM-13 cell lines were plated at 7,500 cells per well in 384 well microtiter plates and treated with drugs in triplicate using an acoustic liquid handler using protocol (P.SOP.007.02_Compound Addition Using GBG).
(§5) The following compounds were serially dosed in 24-hour intervals using an acoustic liquid handler. Decitabine, 5-azacytidine and guadecitabine were dosed at 3000, 1000, 333.33, 111.11, 37.04, 12.35, 4.12, 1.37 and 0.46 nM at 0, 24 and 48 hours. In addition, guadecitabine was dosed at 3000, 1000, 333.33, 111.11, 37.04, 12.35, 4.12, 1.37 and 0.46 nM at 0 hours without serial dosing (single dose). The dose range of the compounds was determined by back calculating the clinical dose and corresponding to a plasma concentration at 1.5 hours after standard dosing. The 1000 nM concentration of decitabine is based on the clinical dose of 20 mg/m^2, 1-hour intravenous infusion, one time per day for five consecutive days every 4 weeks and the maximum plasma concentration after standard dosing (1.15 micromolar). Decitabine doses in the study were selected above and below this dose. The 1000 nM concentration of 5-azacytidine is based on the clinical dose of 75 mg/m^2/day for 7 days every 28 days and the plasma concentration at 1.5 hours after standard dosing. 5-Azacytidine doses in the study were selected above and below this dose. Guadecitabine regimen is 60 mg/m^2 given subcutaneously daily on Days 1-5 in 28-day cycles (delayed as needed to allow blood count recovery). The clinically relevant guadecitabine dose is 211 nM. Cells were stained at day 0, day 3 and day 7 following cell plating samples were stained with the antibody panel details below and readout with an lntellicyt iQue Plus flow cytometer.
(§6) Cells were stained using Notable labs no wash protocol number (P.SOP.009.01_Screen Readout Automated), briefly, antibodies are added to cells with an acoustic liquid handler, incubated at 4° C. for 20 minutes and readout with an Intellicyt iQue Plus flow cytometer. Staining Panel for Cell lines: DAPI, CD123, PDL1, CD34, CD33, CD15, CD38. Live cells were gated using FSC/SSC and DAPI exclusion using FlowJo analysis software (BeckmanFLow), and then further defined by cell surface marker expression. Absolute counts or Mean Fluorescence Intensity from triplicate wells were averaged and fold change was calculated with respect to a vehicle-only (DMSO) control.

[3] = test system: PD-L1 expression in AML cell lines and primary bone marrow HSCs/MMPs; assay: PD-L1 expression by flow cytometry, AML cell lines and primary bone marrow cells; assay type: cell-based; conditions: any dose; all cell lines and primary bone marrow HSCs or MMPs
From the text: Cells are gated on live cells. Blast cells in AML cell lines were defined as CD33 or CD34 positive. Primary HSCs were defined as CD45^dimSSC^lowCD34^highCD38− and multipotent progenitors were defined as CD34^highCD38+, data represents mean of four normal donors and the error bars represent Standard deviation.
as §4
(§7) The following compounds were serially dosed in 24-hour intervals using an acoustic liquid handler. Decitabine, 5-azacytidine and guadecitabine were dosed at 3000, 1000, 333.33, 111.11, 37.04, 12.35, 4.12, 1.37 and 0.46 nM at 0, 24 and 48 hours. […] The dose range of the compounds was determined by back calculating the clinical dose and corresponding to a plasma concentration at 1.5 hours after standard dosing. […] Cells were stained at day 0, day 3 and day 7 following cell plating samples were stained with the antibody panel details below and readout with an lntellicyt iQue Plus flow cytometer.
Cells were stained using Notable labs no wash protocol number (P.SOP.009.01_Screen Readout Automated), briefly, antibodies are added to cells with an acoustic liquid handler, incubated at 4° C. for 20 minutes and readout with an Intellicyt iQue Plus flow cytometer. […] Absolute counts or Mean Fluorescence Intensity from triplicate wells were averaged and fold change was calculated with respect to a vehicle-only (DMSO) control.
CD34 enriched bone marrow was purchase from AllCells. […] Cells were stained at day 0 and day 7 following cell plating samples were stained with the antibody panel details below and readout with an Intellicyt iQue Plus flow cytometer. Cells were stained using Notable labs staining protocol number (P.SOP.009.01_Screen Readout Automated). […]

SKM1 cell line = assay: CD123 MFI by flow cytometry, SKM1; assay type: cell-based; conditions: for CD123 expression at clinically relevant dose (FIG. 2c): 1000 nM; for CD123 MFI (dose dependent increase): SKM1, 0.46-3000 nM, day 7
Description: (§8) (c) Fold change in CD123 MFI at 1000 nM clinically relevant decitabine dose (P values are calculated by student Test). Cells are gated on live cells. Blast cells in AML cell lines were defined as CD33 or CD34 positive. Primary HSCs were defined as CD45^dimSSC^lowCD34^highCD38− and multipotent progenitors were defined as CD34^highCD38+, data represents mean of four normal donors and the error bars represent Standard deviation. Fold change in CD123 Mean Fluorescence Intensity (MFI) with respect to DMSO treated cells is presented.
as §4, §5, §6

CD38+CD34+ MMPs = assay: CD123 expression by flow cytometry, primary multipotent progenitors; assay type: cell-based; conditions: for CD123 expression at clinically relevant dose (FIG. 2c) / average increase in CD123 expression vs DMSO: MMPs
From the text: as §1, §2

[4] = test system: primary CD34+ Bone marrow cells; assay: CD123 MFI by flow cytometry, primary CD34+ bone marrow cells (overall); assay type: cell-based; conditions: for CD123 MFI / expression in primary bone marrow cells: four normal donors, dose range
Description: as §8, §2

AML blasts = conditions: in vitro; reported; cited from earlier work
AML cells = assay: CD123 expression in AML cells quantitated by fluorescence-activated cell sorting; assay type: cell-based
[5] = clinical dose 20 mg/m^2, 1-hour intravenous infusion, once per day for five consecutive days every 4 weeks; cited from earlier work
[6] = test system: CD34+CD38+ Multipotent progenitors (MMPs) and CD34+CD38− Hematopoietic Stem Cells (HSCs); assay: Live cell counts by flow cytometry, normal donor CD34+ bone marrow cells; conditions: for cell counts (dose dependent decline): primary MMPs and HSCs, 0.46-3000 nM
Description: as §3
CD34 enriched bone marrow was purchase from AllCells. Fresh (never frozen) cells were plated at 15,000 cells per well in 384 well microtiter plates and treated with drugs in triplicate using an acoustic liquid handler. The following compounds were dosed serial in 24-hour intervals: decitabine, guadecitabine and 5-azacytidine were dosed at 3000, 1000, 333.33, 111.11, 37.04, 12.35, 4.12, 1.37 and 0.46 nM at 0, 24 and 48 hours. In addition, auadecitabine was dosed at 3000, 1000, 333.33, 111.11, 37.04, 12.35, 4.12, 1.37 and 0.46 nM at 0 hours without serial dosing (single dose). Cells were stained at day 0 and day 7 following cell plating samples were stained with the antibody panel details below and readout with an Intellicyt iQue Plus flow cytometer. Cells were stained using Notable labs staining protocol number (P.SOP.009.01_Screen Readout Automated). Staining Panel for Healthy CD34+ Bone Marrow: DAPI, CD45, CD3, CD19, CD16, CD14, CD38, CD33, CD34, CD90, CD123, CD274. Live cells were gated using FSC/SSC and DAPI exclusion using FlowJo analysis software (Beckman Flow), and then further defined by cell surface marker expression. Absolute counts from triplicate wells were averaged and normalized to a vehicle-only (DMSO) control.

AML patients = test system: AML patients
Description: Fifteen AML patients treated in our ongoing first in human phase 1 clinical trial (NCT0262355) evaluating CD123CAR T cells in patients with relapsed or refractory AML or blastic plasmacytoid dendritic cell neoplasm (BPDCN) received lymphodepletion prior to CAR T cell infusion on day 0. All received fludarabine (25-30 mg/m2/day) and cyclophosphamide (300-500 mg/m2/day). Both were administered daily from days −5 to −3. Eight also received decitabine (20 mg/m2/day) given daily for 5 days from days −7 to −3 or daily for 3 days from days −5 to −3.

Kasumi-1 = assay: CD123 MFI by flow cytometry, Kasumi-1; assay type: cell-based; conditions: 0.46-3000 nM, day 7
Description: as §8
(§9) SKM1, Kasumi-1 and MOLM-13 cell lines were maintained in 80% RPMI 1640+20% FBS according to manufacturer's instructions. […]
as §7, with “handler.” for “handler. Decitabine, 5-azacytidine and guadecitabine were dosed at 3000, 1000, 333.33, 111.11, 37.04, 12.35, 4.12, 1.37 and 0.46 nM at 0, 24 and 48 hours.”
(§10) Cells were stained using Notable labs no wash protocol number (P.SOP.009.01_Screen Readout Automated), briefly, antibodies are added to cells with an acoustic liquid handler, incubated at 4° C. for 20 minutes and readout with an Intellicyt iQue Plus flow cytometer. […]

MOLM-13 = assay: CD123 MFI by flow cytometry, MOLM-13; assay type: cell-based; conditions: 0.46-3000 nM, day 7
Description: as §8, §9
as §7, with “handler.” for “handler. Decitabine, 5-azacytidine and guadecitabine were dosed at 3000, 1000, 333.33, 111.11, 37.04, 12.35, 4.12, 1.37 and 0.46 nM at 0, 24 and 48 hours.”
as §10

[7] = 5 day treatment, decitabine p<0.001, azacitidine p<0.05

Structure (SMILES) | CD123 expression at clinically relevant dose (FIG. 2c) ([1]; 1000 nM) | cell numbers (dose dependent decline) [2] | PD-L1 expression [3] | CD123 expression at clinically relevant dose (FIG. 2c) (SKM1 cell line) | CD123 MFI (dose dependent increase) (SKM1 cell line) | CD123 expression at clinically relevant dose (FIG. 2c) (CD38+CD34+ MMPs; 1000 nM) | CD123 MFI / expression in primary bone marrow cells [4] | CD123 expression in AML cells (AML cells; [7]) | cell counts (dose dependent decline) [6] | further results
Nc1ncn([C@H]2C[C@H](OP(=O)(O)OC[C@H]3O[C@@H](n4cnc5c(=O)[nH]c(N)nc54)C[C@@H]3O)[C@@H](CO)O2)c(=O)n1 [guadecitabine] | significantly enhanced | dose dependent decline | no impact | significantly enhanced | increase in CD123 MFI in a dose dependent manner | significantly enhanced |  |  |  | change in CD123 expression ([1]; normal bone marrow HSCs, regardless of the dose): did not show any change; change in CD123 expression (CD38+CD34+ MMPs; normal bone marrow MMPs, regardless of the dose): did not show any change
Nc1ncn([C@H]2C[C@H](O)[C@@H](CO)O2)c(=O)n1 [decitabine] | significantly enhanced | dose dependent decline | no impact | significantly enhanced | upregulates | significantly enhanced | upregulates | significant increase | dose dependent decline | CD123 MFI with respect to DMSO treated cells ([4]; 3000 nM, FIG. 2b): no change; CD123 MFI in primary CD34+ bone marrow cells ([4]; clinically relevant dose of 1000 nM): increase; CD123 expression in AML blasts (AML blasts): upregulate; increase in CD123 expression vs DMSO ([1]; 111.11 nM): 1.3 fold; increase in CD123 expression vs DMSO ([1]; 333.33 nM): 1.6 fold; increase in CD123 expression vs DMSO ([1]; 1000 nM): 1.4 fold; CD123 expression in AML cells (AML cells; 3 day treatment, p<0.001): significant increase; maximum plasma concentration after standard dosing [5]: 1.15 µM; CD123 MFI (dose dependent increase) (SKM1 cell line; listed as Decitabine): dose dependent increase; cell death at high dose ([6]; 3000 nM, FIG. 1b): cell death; treatment related adverse events in decitabine treated group (AML patients; 8 patients with decitabine vs 7 without): not observed increased treatment related adverse events; tolerability / dose limiting toxicities (AML patients; AML patients, fludarabine and cyclophosphamide lymphodepletion, eight also decitabine 20 mg/m2/day, CAR T infusion day 0): well tolerated; average increase in CD123 expression vs DMSO (CD38+CD34+ MMPs; 111.11 nM): 1.4 fold; average increase in CD123 expression vs DMSO (CD38+CD34+ MMPs; 333.33 nM): 1.4 fold; average increase in CD123 expression vs DMSO (CD38+CD34+ MMPs; 1000 nM): 1.3 fold
Nc1ncn([C@@H]2O[C@H](CO)[C@@H](O)[C@H]2O)c(=O)n1 [5-azacytidine] |  | dose dependent decline | no impact |  | did not impact |  | highly variable | significant increase | dose dependent decline | CD123 MFI (dose dependent increase) (Kasumi-1): did not impact; CD123 MFI (dose dependent increase) (MOLM-13): did not impact
CN[C@@H]1C[C@H]2O[C@@](C)([C@@H]1OC)n1c3ccccc3c3c4c(c5c6ccccc6n2c5c31)C(=O)NC4 [Staurosporine] |  |  |  |  |  |  |  |  |  | viable cells ([2]; positive control for cell death, all cell line groups): significant reductions; viable cells ([6]; positive control for cell death, primary cell groups): significant reductions
